The values below come from patent US9540343B2 (Gilead Sciences, Inc., priority 2011, dated 2017).

The CC50 is the concentration giving 50% cytotoxicity. Low values mean greater toxicity to the cells, high ones lower toxicity to the cells. Usually inhibition stands for the share of the control response that was lost under treatment.

One series is described as follows: in vitro. Particulars: human, uninfected MT-4 cells, CC50 (nM), same protocol as Test A, CellTiter-Glo. Summed up:
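Cytoprotection read-out: CellTiter-Glo chemiluminescence after 5 days at 37 °C of HIV-IIIb-infected MT-4 cells (m.o.i. 0.003) with compound in 10-point 3-fold dilutions, quadruplicate, 10% FBS. Cytotoxicity (CC50) measured identically without virus.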
(In general: ATP-based viability assays read luminescence as a measure of living cells.)

The test system of another series is HIV-IIIb. The series can be described thus: Test A: Antiviral assay in MT4 cells. Type of series: cell-based, HIV-1. The settings on record: Human immunodeficiency virus 1, IIIB, MT4, 120 h, read-out: % inhibition at 2 μM, percent inhibition of virus-induced cell killing, from dose response curve at 2 uM drug; MT-4 cells infected with HIV-IIIb, 5 days, CellTiter-Glo.

In “in vitro”, `O=C(Cn1nc(C(F)F)cc1C(F)F)N[C@@H](Cc1cc(F)cc(F)c1)c1ncccc1-c1cnc2[nH]ccc2c1` [Example 512C, (S)—N-(1-(3-(1H-pyrrolo[2,3-b]pyridin-5-yl)pyridin-2-yl)-2-(3,5-difluorophenyl)ethyl)-2-(3,5-bis(difluoromethyl)-1H-pyrazol-1-yl)acetamide] registered a CC50 at 5 days of 19900 nM. The inhibition at 2 µM in the series with HIV-IIIb is 60%.
The matching figures for `O=C(Cc1c[nH]c2ccc(C(F)(F)F)cc12)N[C@@H](Cc1cc(F)cc(F)c1)c1ncccc1-c1ccc(Cl)cc1` [Example 513, (S)—N-(1-(3-(4-chlorophenyl)pyridin-2-yl)-2-(3,5-difluorophenyl)ethyl)-2-(5-(trifluoromethyl)-1H-indol-3-yl)acetamide]: 10700 nM and 63%.
The matching figures for `NC(=O)c1cc(-c2cccnc2[C@H](Cc2cc(F)cc(F)c2)NC(=O)Cn2ccc3cnccc32)ccc1F` [Example 514, (S)-5-(2-(1-(2-(1H-pyrrolo[3,2-c]pyridin-1-yl)acetamido)-2-(3,5-difluorophenyl)ethyl)pyridin-3-yl)-2-fluorobenzamide]: > 46100 nM and 3%.
The corresponding values for `Cc1[nH]c2ccc(F)cc2c1CC(=O)N[C@@H](Cc1cc(F)cc(F)c1)c1ncccc1-c1cccc(C(N)=O)c1` [Example 517E, (S)-3-(2-(2-(3,5-difluorophenyl)-1-(2-(5-fluoro-2-methyl-1H-indol-3-yl)acetamido)ethyl)pyridin-3-yl)benzamide] are 19100 nM and 87%.
In the series “in vitro”, `NC(=O)c1cc(-c2cccnc2[C@H](Cc2cc(F)cc(F)c2)NC(=O)Cn2cnc3cc(Cl)c(Cl)cc32)ccc1F` [Example 518, (S)-5-(2-(1-(2-(5,6-dichloro-1H-benzo[d]imidazol-1-yl)acetamido)-2-(3,5-difluorophenyl)ethyl)pyridin-3-yl)-2-fluorobenzamide] had a CC50 at 5 days of 10500 nM. The inhibition at 2 µM in the series with HIV-IIIb was found to be 11%.
In the series “in vitro”, `CC(C(=O)N[C@@H](Cc1cc(F)cc(F)c1)c1ncccc1-c1ccc(F)c(C(N)=O)c1)n1nc(C(F)(F)F)cc1C1CC1` (stereo partly drawn) [Example 519, 5-(2-((1S)-1-(2-(5-cyclopropyl-3-(trifluoromethyl)-1H-pyrazol-1-yl)propanamido)-2-(3,5-difluorophenyl)ethyl)pyridin-3-yl)-2-fluorobenzamide] had a 50% cytotoxic concentration (CC50) at 5 days of 20300 nM. In addition, the inhibition at 2 µM in the series on HIV-IIIb was 65%.
`CC(C)c1cc(C(=O)NC2CC2)n(CC(=O)N[C@@H](Cc2cc(F)cc(F)c2)c2ncccc2-c2ccc(F)c(C(N)=O)c2)n1` [Example 520, (S)-1-(2-(1-(3-(3-carbamoyl-4-fluorophenyl)pyridin-2-yl)-2-(3,5-difluorophenyl)ethylamino)-2-oxoethyl)-N-cyclopropyl-3-isopropyl-1H-pyrazole-5-carboxamide]: the 50% cytotoxic concentration (CC50) at 5 days in the series “in vitro” was > 53200 nM. Besides, the inhibition at 2 µM in the series with HIV-IIIb stood at 30%.
For the compound `CC(C)c1cc(C(=O)O)nn1CC(=O)N[C@@H](Cc1cc(F)cc(F)c1)c1ncccc1-c1ccc(F)c(C(N)=O)c1` [Example 521], the 50% cytotoxic concentration (CC50) at 5 days in the series “in vitro” is > 53200 nM. Also, the inhibition at 2 µM in the series with HIV-IIIb stood at 0%.
The corresponding values for `Cc1cc2c(ccn2CC(=O)N[C@@H](Cc2cc(F)cc(F)c2)c2ncccc2-c2ccc(F)c(C(N)=O)c2)cn1` [Example 522, (S)-5-(2-(2-(3,5-difluorophenyl)-1-(2-(6-methyl-1H-pyrrolo[3,2-c]pyridin-1-yl)acetamido)ethyl)pyridin-3-yl)-2-fluorobenzamide] are 47900 nM and 4%.
The matching figures for `CNC(=O)c1nc2c(C)cccc2n1CC(=O)N[C@@H](Cc1cc(F)cc(F)c1)c1ncccc1-c1ccc(F)c(C(N)=O)c1` [Example 523, (S)-1-(2-(1-(3-(3-carbamoyl-4-fluorophenyl)pyridin-2-yl)-2-(3,5-difluorophenyl)ethylamino)-2-oxoethyl)-N,4-dimethyl-1H-benzo[d]imidazole-2-carboxamide]: 48800 nM and 24%.
